Assay results published in patent publication US20240299348A1, “MODULATORS OF TRPML, THEIR COMPOSITIONS AND METHODS OF USE” (Caraway Therapeutics, Inc., priority 2021, published 2024).
Read-outs that look alike come from different tables or passages of the source.

How the values were obtained:
[1] = target: T1, hTRPML2 (Homo sapiens, UniProt Q8IZK6); test: TRPML2 fluorescent (Fluo-4) assay; format: cell-based
T1 construct: expressed in transfected cells; host or cells: HEK-293 Trex (by analogy, 'performed as above')
T1 sequence (Q8IZK6 1-566): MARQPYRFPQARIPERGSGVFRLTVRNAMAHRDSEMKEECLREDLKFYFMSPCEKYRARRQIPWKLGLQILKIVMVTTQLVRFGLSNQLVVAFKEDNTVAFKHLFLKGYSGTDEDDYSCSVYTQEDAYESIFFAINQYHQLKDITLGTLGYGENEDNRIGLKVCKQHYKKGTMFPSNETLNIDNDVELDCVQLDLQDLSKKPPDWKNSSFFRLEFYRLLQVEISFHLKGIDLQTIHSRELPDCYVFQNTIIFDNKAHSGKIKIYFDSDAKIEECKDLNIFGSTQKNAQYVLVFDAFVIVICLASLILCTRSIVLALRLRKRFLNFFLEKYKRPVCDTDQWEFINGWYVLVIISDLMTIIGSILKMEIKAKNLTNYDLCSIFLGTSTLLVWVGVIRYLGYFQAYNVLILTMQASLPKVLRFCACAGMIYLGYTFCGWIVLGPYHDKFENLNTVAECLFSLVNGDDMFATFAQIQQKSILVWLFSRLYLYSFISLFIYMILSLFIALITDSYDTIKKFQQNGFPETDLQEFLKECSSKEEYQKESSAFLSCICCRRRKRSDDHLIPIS
Procedure: (§1) Assays for TRPML2 and TRPML3 were performed as above for TRPML1, by substituting the appropriate TRPML2 or TRPML3 subtype for the TRPML1.
(§2) EC50 values were calculated using a non-linear regression of Prism.

[2] = target: T2, hTRPML3 (Homo sapiens, UniProt Q8TDD5); test: TRPML3 fluorescent (Fluo-4) assay; format: cell-based
T2 construct: expressed in transfected cells; host or cells: HEK-293 Trex (by analogy, 'performed as above')
T2 sequence (Q8TDD5 1-553): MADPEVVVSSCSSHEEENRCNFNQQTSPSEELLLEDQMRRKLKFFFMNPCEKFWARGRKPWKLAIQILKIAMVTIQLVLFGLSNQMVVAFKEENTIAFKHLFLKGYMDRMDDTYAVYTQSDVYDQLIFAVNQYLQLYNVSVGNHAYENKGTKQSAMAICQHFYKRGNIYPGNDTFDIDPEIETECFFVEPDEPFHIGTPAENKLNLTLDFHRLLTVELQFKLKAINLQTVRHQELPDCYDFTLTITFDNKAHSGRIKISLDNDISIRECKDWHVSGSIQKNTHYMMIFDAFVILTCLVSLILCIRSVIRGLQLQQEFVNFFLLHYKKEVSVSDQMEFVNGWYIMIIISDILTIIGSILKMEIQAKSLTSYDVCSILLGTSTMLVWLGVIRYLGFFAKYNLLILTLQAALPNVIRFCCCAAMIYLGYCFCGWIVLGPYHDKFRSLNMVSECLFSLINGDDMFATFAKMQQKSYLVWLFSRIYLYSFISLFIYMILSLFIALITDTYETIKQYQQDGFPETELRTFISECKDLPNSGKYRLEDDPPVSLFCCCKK
Procedure: as §1, §2

[3] = target: T3, hTRPML1 (Homo sapiens, UniProt Q9GZU1); test: TRPML1 fluorescent (Fluo-4) assay; format: cell-based; set-up: Secondary Screening: Fluo-4: hTRPML1: EC50 (M); HEK-293 Trex cells expressing hTRPML1; settings: activation; HEK-293 Trex cells expressing hTRPML1; read-out: Secondary Screening: Fluo-4: hTRPML1: EC50
T3 sequence (Q9GZU1 whole entry L15A/L16A/L577A/L578A, form open): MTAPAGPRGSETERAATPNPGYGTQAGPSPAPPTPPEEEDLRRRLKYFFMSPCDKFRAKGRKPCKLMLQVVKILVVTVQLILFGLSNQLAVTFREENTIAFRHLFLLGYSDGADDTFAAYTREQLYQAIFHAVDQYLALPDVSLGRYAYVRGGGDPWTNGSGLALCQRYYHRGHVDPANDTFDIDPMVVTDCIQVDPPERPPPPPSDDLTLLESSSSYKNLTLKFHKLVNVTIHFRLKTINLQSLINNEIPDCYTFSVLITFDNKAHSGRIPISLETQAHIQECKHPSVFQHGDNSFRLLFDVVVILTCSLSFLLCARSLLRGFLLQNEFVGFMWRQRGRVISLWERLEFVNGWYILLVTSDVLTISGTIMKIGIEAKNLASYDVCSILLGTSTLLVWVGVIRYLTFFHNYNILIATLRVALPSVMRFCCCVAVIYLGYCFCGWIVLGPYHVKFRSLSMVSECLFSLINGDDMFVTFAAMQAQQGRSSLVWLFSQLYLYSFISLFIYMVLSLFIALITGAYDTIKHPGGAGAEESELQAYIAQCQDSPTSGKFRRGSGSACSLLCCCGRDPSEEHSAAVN
Procedure: (§3) HEK-293 Trex cells were stably transfected with a construct consisting of the human coding sequence for TRPML1 cloned into the […] plasmid pCDNA5 T/O. Mutations were introduced into the TRPML1 sequence to facilitate expression on the cell surface (Silvia Vergarajauregui, Rosa Puertollano Traffic. 2006 March; 7(3): 337-353). Briefly, the cells are cultured in 150 mm round tissue culture dishes containing 20 mL of media. The day before the assay the cells are rinsed with DPBS—Ca—Mg and then treated briefly with Trypsin-EDTA. The Trypsin-EDTA is diluted with growth media, and cells are counted. 38×10^6 cells are re-plated into 150 mm round tissue culture dishes in media containing 0.5 ug/mL doxycycline to induce expression of hTRPML1.
The day of the experiment cells are lifted from the plates as above and collected by centrifugation. The cells are then suspended in dye loading buffer consisting of Ringer's solution supplemented with 0.1% Pluronic Acid and 1 micromolar Fluo4-AM dye. Cells are loaded for ˜60 minutes in the dark with occasional mixing. The cells are collected by centrifugation, the loading media aspirated, and the cells resuspended in 25 mL Ringer's solution and incubated ˜60 minutes in the dark. The cells are again collected by centrifugation, rinsed in Ringer's Solution and resuspended to 0.2×10^6 cells/mL in modified Ringer's solution containing 10 mM calcium.
Compounds are dissolved to a concentration of 10 millimolar with DMSO. Compound plates are created by dispensing compounds into 384 well black wall clear bottom plates (Greiner 781091). Positive and negative controls are included on each plate. Typically, different amounts of each compound are tested ranging from 100 nanoMoles (20 micromolar final concentration) decreasing in half-log steps to 31 picoMoles (6 nanomolar final concentration). Each concentration is typically tested in triplicate.
(§4) 50 microliters of dye-loaded cells are dispensed into each well of the compound assay plate created above. The fluorescence in each well is then determined with an excitation wavelength of 480 nm and an emission wavelength of 540 nm using either a Molecular Devices SpectraMax multimode plate reader or a Hamamatsu FDSS/uCell plate imager.
(§5) The resulting fluorescence for each well is exported as an ascii file and loaded into our LIMS for analysis. The percent activity of each compound at each concentration is determined by comparison to the positive and negative control wells included in each plate.
as §2

[4] = test system: mIMCD-3 cells with the PKD1 gene knocked out; test: Forskolin-induced cyst swelling, in vitro model of Polycystic Kidney Disease; format: cell-based, murine; settings: 5 uM forskolin, 72 hours of compound treatment; DMSO 100%+/−7.1
Procedure: Shown in FIG. 3 are results from an experiment where mIMCD-3 cells with the PKD1 gene knocked out via CRISPR-generated frameshifting indels were seeded into 384 well plates containing Matrigel and cultured in standard growth media for 4 days until they formed spherical organoid cysts as described in Reference 1 (Booij et al., SLAS Discov. 2017 September; 22(8):974-984). TRPML1 activators and vehicle were added to the cells at the indicated concentrations, in combination with 5 uM forskolin to induce cyst swelling. Four replicates per treatment were used. Approximately half of the media in each well was replaced with fresh media containing compounds and forskolin every 24 hours. After 72 hours of compound treatment, the cysts were fixed and stained for nuclei (DAPI) and actin (fluorescent-conjugated phalloidin). The ability of the TRPML1 activators to inhibit forskolin-induced cyst swelling was assessed using the 2-dimensional cross-sectional area of each cyst as measured using a high content microscope with a 4× objective, and analyzed using proprietary Ominer software. Cyst areas were averaged within each well and normalized to the vehicle control (DMSO).

[5] = target: TRPML1 (Homo sapiens, UniProt Q9GZU1, L15A/L16A); test: GCaMP surface assay; format: cell-based
Chain of TRPML1 (Q9GZU1 with tags, fused parts or gaps L15A/L16A): as the sequence (Q9GZU1 whole entry L15A/L16A/L577A/L578A, form open) above

[6] = test system: TRPMLs; settings: literature report; cited from earlier work
[7] = target: T3, hTRPML1; test: TRPML1 fluorescent (Fluo-4) assay; format: cell-based; set-up: fused on or other part: Possibly a GCaMP calcium sensor fused on, for the parenthetic 'GCaMP surface assay' value
Procedure: as §3, with “38×10^6 cells are re-plated into 150 mm round tissue culture dishes in media containing 0.5 ug/mL doxycycline to induce expression of hTRPML1.” left out
as §4, §5, §2

[8] = test system: HeLa cells with the NPC1 gene knocked out; test: Total hexosylceramides in HeLa cells with NPC1 gene knocked out; format: cell-based; settings: NPC1 knockout HeLa, FIG. 1
Procedure: (§6) HeLa cells with the NPC1 gene knocked out via CRISPR-generated frameshifting indels were grown in standard cell culture conditions (DMEM high glucose with 10% FBS and penicillin/streptomycin). Cells were treated with the indicated concentrations of TRPML1 activators for 48 hours; media and compound were refreshed every 24 hours (FIG. 1). Two replicates per treatment were used. Cells were pelleted in PBS, frozen, and shipped to the Medical University of South Carolina (MUSC) for lipid quantitation by mass spectrometry. Lipid quantities were normalized to total inorganic phosphate in the cell sample as assessed by mass spectrometry. […] Statistical significance versus DMSO (p values indicated above) unpaired t-test.

[9] = test system: HeLa cells with the NPC2 gene knocked out; test: Total hexosylceramides in HeLa cells with NPC2 gene knocked out; format: cell-based; settings: NPC2 knockout HeLa
Procedure: as §6
Shown in FIG. 2 are results from the same experiment described in FIG. 1, but using HeLa cells with the NPC2 gene knocked out via CRISPR.

[10] = activation, read-out: Secondary Screening: Fluo-4: hTRPML2: EC50
[11] = activation, read-out: Secondary Screening: Fluo-4: hTRPML3: EC50

SMILES | EC50 [1, 10] | EC50 [2, 11] | EC50 [3] | cyst area normalized to the vehicle control (DMSO) [4] | further results
Cc1ccc(S(=O)(=O)Nc2ccccc2N2CCCCC2)s1 [Compound 127, reference compound] |  |  |  | 79.6%+/−3.8 | EC50 [5]: 2640 nM
CN(C)S(=O)(=O)c1ccc(S(=O)(=O)Nc2ccccc2N2CCN(c3ccc(Cl)cc3F)CC2)cc1 [Compound 125] |  |  |  | 69.6%+/−4.4 | EC50 [5]: 453 nM
CN(C1CCN(c2ccccc2F)C1)[C@H]1CCCC[C@@H]1NS(=O)(=O)c1ccc(S(=O)(=O)N(C)C)cc1 (relative stereo) [Compound 121, trans-N^1-(2-((1-(2-fluorophenyl)pyrrolidin-3-yl)(methyl)amino)-cyclohexyl)-N^4,N^4-dimethylbenzene-1,4-disulfonamide] | 1000 to 5000 nM | 300 to 1000 nM | 1000 to 5000 nM |  | 
CC1CC(C)(C)N(C(=O)CN2C(=O)c3ccccc3C2=O)c2ccccc21 (stereo not drawn) [Compound 126, reference compound] |  |  |  | 72.3%+/−2.5 | TRPML2 activation EC50 (Table 2, class) ([1]; Table 2 key): B/C/D; EC50 ([1]; read-out: TRPML2 activation EC50 (Table 2, number)): 5410 nM; EC50 ([2]; read-out: TRPML3 activation EC50 (Table 2, number)): 1580 nM; concentration needed to effectively activate TRPMLs [6]: ~10 µM; TRPML1 activation EC50 (Table 2, class) ([7]; Table 2 key): B/C/D; EC50 ([7]; read-out: TRPML1 activation EC50 (Table 2, number)): 3520 nM
CN(c1ccccc1NS(=O)(=O)c1ccc(S(=O)(=O)N(C)C)cc1)C1CCN(C(=O)Oc2ccccc2)C1 (stereo not drawn) [Compound 123, Phenyl 3-((2-((4-(N,N-dimethylsulfamoyl)phenyl)sulfonamido)phenyl)(methyl)amino)pyrrolidine-1-carboxylate] | 1000 to 5000 nM | 300 to 1000 nM | 1000 to 5000 nM |  | 
CN(c1ccccc1NS(=O)(=O)c1ccc(S(=O)(=O)N(C)C)cc1)C1CCN(c2ccc(Cl)cc2F)C1 (stereo not drawn) [Compound 101, N^1-(2-((1-(4-chloro-2-fluorophenyl)pyrrolidin-3-yl)(methyl)amino)phenyl)-N^4,N^4-dimethylbenzene-1,4-disulfonamide] | < 300 nM | < 300 nM | 300 to 1000 nM | 51.2%+/−1.6 | total hexosylCeramides compared with DMSO vehicle (in words) [8]: reduced; total HexosylCeramides ([9]; 48 hours treatment, DMSO 6.45+/−0.28): 3.48+/−0.20 HexCer/nmol Pi/sample; total hexosylCeramides compared with DMSO vehicle (in words) ([9]; FIG. 2): reduced
CN(C)S(=O)(=O)c1ccc(S(=O)(=O)N[C@@H]2CCCCC[C@@H]2N2CCN(c3ccc(Cl)cc3F)CC2)cc1 (relative stereo) [Compound 122, Cis-N^1-(2-(4-(4-chloro-2-fluorophenyl)piperazin-1-yl)cycloheptyl)-N^4,N^4-dimethylbenzene-1,4-disulfonamide] | 1000 to 5000 nM | 300 to 1000 nM | < 300 nM |  | 

The next lines start with results.

EC50 [1, 10] | EC50 [2, 11] | EC50 [3] | SMILES | cyst area normalized to the vehicle control (DMSO) [4] | further results
> 5000 nM | 1000 to 5000 nM | 300 to 1000 nM | CN(c1ccccc1NS(=O)(=O)c1ccc(S(C)(=O)=O)cc1)C1CCN(c2ccc(Cl)cc2F)C1 (stereo not drawn) [Compound 113, N-(2-((1-(4-Chloro-2-fluorophenyl)pyrrolidin-3-yl)(methyl)amino)phenyl)-4-(methylsulfonyl)benzene-sulfonamide] |  | 
1000 to 5000 nM | 300 to 1000 nM | < 300 nM | CN(C)S(=O)(=O)c1ccc(S(=O)(=O)N[C@@H]2CCCCC[C@H]2N2CCN(c3ccc(Cl)cc3F)CC2)cc1 (relative stereo) [Compound 120, trans-N^1-(2-(4-(4-chloro-2-fluorophenyl)piperazin-1-yl)cycloheptyl)-N^4,N^4 dimethylbenzene-1,4-disulfonamide] |  | 
